Biological target: T1, PPARγ (Homo sapiens, UniProt P37231)
T1 construct: expressed in transfected cells; host or cells: HEK293T
T1 sequence (P37231 238-503 limits assumed): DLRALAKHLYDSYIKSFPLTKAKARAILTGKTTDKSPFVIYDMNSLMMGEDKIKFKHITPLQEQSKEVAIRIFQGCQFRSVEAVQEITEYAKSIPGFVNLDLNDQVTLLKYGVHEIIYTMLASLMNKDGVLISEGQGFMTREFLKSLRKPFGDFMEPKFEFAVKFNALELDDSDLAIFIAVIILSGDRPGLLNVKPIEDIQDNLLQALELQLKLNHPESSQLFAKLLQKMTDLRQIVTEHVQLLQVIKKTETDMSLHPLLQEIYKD
Test: Gal4 hybrid reporter gene assay PPARγ (HEK293T)
Assay type: cell-based
Conditions: relative activation, n=2
From the text: Isothermal titration calorimetry (ITC) confirmed binding of 8 and 19 to the recombinant proteins of both FXR LBD and LTA4H (Figure 1).
Figure 2 (a) Selectivity profiles of 8 and 19 over related nuclear receptors. […] (b) Activity of 8 and 19 in a WST‐1 cell viability assay in HepG2 cells. Data are mean±S.E.M., n=4. […] Data are mean±S.E.M. relative FXR activation (%), n≥3. […] Data are mean±S.E.M. relative LTA4H inhibition (%), n=3.
Hybrid reporter gene assays. Nuclear receptor modulation was determined in hybrid reporter gene assays using the Gal4‐fusion receptor plasmids pFA‐CMV‐hPPARα‐LBD,[39] pFA‐CMV‐hPPARγLBD,[39] pFA‐CMV‐hPPARδ‐LBD,[39] pFA‐CMV‐hLXRα‐LBD,[40] pFACMV‐hLXRβ‐LBD,[40] pFA‐CMV‐hRXRα‐LBD,[41] pFA‐CMV‐hRARα‐LBD,[41] pFA‐CMV‐hVDR‐LBD[41] and pFA‐CMV‐hCAR‐LBD[41] coding for the hinge region and ligand binding domain (LBD) of the canonical isoform of the respective nuclear receptor, pFR‐Luc (Stratagene) as reporter plasmid and pRL‐SV40 (Promega) for normalization of transfection eﬃciency. HEK293T cells were grown in DMEM high glucose, supplemented with 10 % FCS, sodium pyruvate (1 mM), penicillin (100 U/mL), and streptomycin (100 μg/mL) at 37 °C and 5 % CO2, and seeded in 96‐well plates (2.5 ⋅ 10^4 cells/well) the day before transfection. […] Luminescence was measured with an Infinite M200 luminometer (Tecan Deutschland GmbH, Germany). […]

PPARγ activation: weak PPARγ activation
SMILES: O=C(O)c1cccc(NC(=O)c2ccc(OCCCc3ccccc3)cc2)c1 [compound 8]

Reference: article PMC8453936, “Development and in vitro Profiling of Dual FXR/LTA4H Modulators” (Chemmedchem, 2021)
